Results reported in patent US8163909B2, “Substituted hydroxyethyl amine compounds as beta-secretase modulators and methods of use” (Amgen Inc., priority 2007, dated 2012).

Assays:
[1] = test system: Aβ40 in conditioned medium of cells stably expressing Amyloid Precursor Protein (APP); assay: In vitro BACE cell-based assay (Aβ40 in conditioned medium, sandwich ELISA); settings: Homo sapiens, HEK293, HEK cells, cell-based assay; read-out: HEK cell assay (IC50);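 also: compounds added as a dilution series, secreted peptide quantified by europium time-resolved fluorescence readout, potency fitted from percent of control versus compound concentration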
[2] = target: Beta Secretase enzyme (BACE) (Homo sapiens, UniProt P56817); assay: In vitro enzymatic BACE FRET (fluorescence resonance energy transfer) assay; assay type: biochemical; settings: BACE enzyme assay; read-out: BACE1 FRET assay (IC50);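 also: fluorescence read after 1 h with 50 nM quenched peptide substrate spanning the BACE cleavage site, in pH 4.2 acetate buffer containing 10% DMSO and nonionic detergent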
Beta Secretase enzyme (BACE), sequence (P56817 46-501): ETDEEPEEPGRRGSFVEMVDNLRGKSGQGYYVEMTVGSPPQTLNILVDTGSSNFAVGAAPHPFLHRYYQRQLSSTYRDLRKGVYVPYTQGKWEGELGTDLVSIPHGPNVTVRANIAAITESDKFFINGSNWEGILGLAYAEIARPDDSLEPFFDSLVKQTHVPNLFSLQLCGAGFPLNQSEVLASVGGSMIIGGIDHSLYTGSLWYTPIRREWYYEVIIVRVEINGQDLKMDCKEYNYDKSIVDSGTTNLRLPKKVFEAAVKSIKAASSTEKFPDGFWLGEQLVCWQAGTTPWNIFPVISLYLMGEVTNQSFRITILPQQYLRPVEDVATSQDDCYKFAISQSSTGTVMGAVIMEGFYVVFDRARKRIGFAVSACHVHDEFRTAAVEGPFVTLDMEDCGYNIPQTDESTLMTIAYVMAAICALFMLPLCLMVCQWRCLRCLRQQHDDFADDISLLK

Row | SMILES | IC50 [1] | IC50 [2]
1 | COCC(=O)N[C@@H](Cc1ccc2c(c1)OCO2)[C@H](O)CN[C@H]1CC2(CCC2)Oc2c1cc(CC(C)(C)C)nc2Cl [compound 127, N-((1S,2R)-1-(1,3-benzodioxol-5-ylmethyl)-3-(((4′S)-8′-chloro-6′-(2,2-dimethylpropyl)-3′,4′-dihydrospiro[cyclobutane-1,2′-pyrano[2,3-c]pyridin]-4′-yl)amino)-2-hydroxypropyl)-2-(methyloxy)acetamide] | 67.8 nM | 25.5 nM
2 | CC(=O)N[C@@H](Cc1ccccc1)[C@H](O)CN[C@H]1CC2(CCC2)Oc2c1cc(CC(C)(C)C)nc2N1CCC1 [compound 128] | 16 nM | 33.2 nM
3 | COCC(=O)N[C@@H](Cc1ccc2c(c1)OCO2)[C@H](O)CN[C@H]1CC2(CCC2)Oc2c1cc(CC(C)(C)C)nc2N [compound 129] | 30.9 nM | 119 nM
4 | COCC(=O)N[C@@H](Cc1ccc2c(c1)OCO2)[C@H](O)CN[C@H]1CC2(CCC2)Oc2c1cc(CC(C)(C)C)nc2N1CCCC1 [compound 130] | 55 nM | 54.1 nM
5 | CO[C@H](C)C(=O)N[C@@H](Cc1ccc2c(c1)OCO2)[C@H](O)CN[C@H]1CC2(CCC2)Oc2c1cc(CC(C)(C)C)nc2Cl [compound 131] | 376 nM | 26.8 nM
6 | CC(=O)NC(Cc1ccc2c(c1)OCO2)C(O)CNC1CC2(CC(C)C2)Oc2ncc(CC(C)C)cc21 [compound 132, N-((1S,2R)-1-(1,3-benzodioxol-5-ylmethyl)-2-hydroxy-3-(((1s,3R,4′S)-3-methyl-6′-(2-methylpropyl)-3′,4′-dihydrospiro[cyclobutane-1,2′-pyrano[2,3-b]pyridin]-4′-yl)amino)propyl)acetamide] | 66 nM | 25.2 nM
7 | COCC(=O)NC(Cc1ccc2c(c1)OCO2)C(O)CNC1CC2(CC(C)C2)Oc2ncc(CC(C)C)cc21 [compound 133, N-((1S,2R)-1-(1,3-benzodioxol-5-ylmethyl)-2-hydroxy-3-(((1s,3R,4′S)-3-methyl-6′-(2-methylpropyl)-3′,4′-dihydrospiro[cyclobutane-1,2′-pyrano[2,3-b]pyridin]-4′-yl)amino)propyl)-2-(methyloxy)acetamide] | 143 nM | 39.8 nM
8 | COC(C)C(=O)NC(Cc1ccc2c(c1)OCO2)C(O)CNC1CC2(CC(C)C2)Oc2ncc(CC(C)C)cc21 [compound 134, (2R)—N-((1S,2R)-1-(1,3-benzodioxol-5-ylmethyl)-2-hydroxy-3-(((1s,3R,4′S)-3-methyl-6′-(2-methylpropyl)-3′,4′-dihydrospiro[cyclobutane-1,2′-pyrano[2,3-b]pyridin]-4′-yl)amino)propyl)-2-(methyloxy)propanamide] | 192 nM | 27.2 nM
9 | CO[C@H](C)C(=O)N[C@@H](Cc1ccc2c(c1)OCO2)[C@H](O)CN[C@H]1CC2(CCC2)Oc2c1cc(CC(C)(C)C)nc2N(C)C [compound 135] | 175 nM | 64.7 nM
10 | CNc1nc(CC(C)(C)C)cc2c1OC1(CCC1)C[C@@H]2NC[C@@H](O)[C@H](Cc1ccc2c(c1)OCO2)NC(=O)[C@@H](C)OC [compound 136] | 16.3 nM | 41.1 nM
11 | CNc1nc(CC(C)(C)C)cc2c1OC1(CCC1)C[C@@H]2NC[C@@H](O)[C@H](Cc1ccc(F)cc1)NC(=O)[C@@H](C)OC [compound 137] | 57.5 nM | 82 nM
12 | CNc1nc(CC(C)(C)C)cc2c1OC1(CCC1)C[C@@H]2N(C)C[C@@H](O)[C@H](Cc1ccc(F)cc1)NC(=O)[C@@H](C)OC [compound 138] | 162 nM | 178 nM
13 | CNc1nc(CC(C)(C)C)cc2c1OC1(CCC1)C[C@@H]2NC[C@@H](O)[C@H](Cc1cccc(F)c1)NC(=O)[C@@H](C)OC [compound 139] | 8.99 nM | 42 nM
14 | COCC(=O)N[C@@H](Cc1cccc(F)c1)[C@H](O)CN[C@H]1CC2(CCC2)Oc2c1cc(CC(C)(C)C)nc2OCC(F)(F)F [compound 140, N-((1S,2R)-3-(((4′S)-6′-(2,2-dimethylpropyl)-8′-((2,2,2-trifluoroethyl)oxy)-3′,4′-dihydrospiro[cyclobutane-1,2′-pyrano[2,3-c]pyridin]-4′-yl)amino)-1-((3-fluorophenyl)methyl)-2-hydroxypropyl)-2-(methyloxy)acetamide] | 115 nM | 7.75 nM
15 | CO[C@H](C)C(=O)N[C@@H](Cc1ccc(F)cc1)[C@H](O)CN[C@H]1CC2(CCC2)Oc2c1cc(CC(C)(C)C)nc2NCC(F)(F)F [compound 141, (2R)-N-((1S,2R)-3-(((4′S)-6′-(2,2-dimethylpropyl)-8′-((2,2,2-trifluoroethyl)amino)-3′,4′-dihydrospiro[cyclobutane-1,2′-pyrano[2,3-c]pyridin]-4′-yl)amino)-1-((4-fluorophenyl)methyl)-2-hydroxypropyl)-2-(methyloxy)propanamide] | 2840 nM | 319 nM
16 | COCC(=O)N[C@@H](Cc1ccc2c(c1)OCO2)[C@H](O)CN[C@H]1CC2(CCC2)Oc2c1cc(CC(C)(C)C)nc2NCC(F)(F)F [compound 142] | 1950 nM | 350 nM
17 | COCC(=O)N[C@@H](Cc1cccc(F)c1)[C@H](O)CN[C@H]1CC2(CCC2)Oc2c1cc(CC(C)(C)C)nc2NCC(F)(F)F [compound 143] | 314 nM | 19.5 nM
18 | CC(=O)N[C@@H](Cc1ccc(F)cc1)[C@H](O)CN[C@H]1CC2(CCC2)Oc2c1cc(CC(C)(C)C)nc2NCC(F)(F)F [compound 144] | 634 nM | 94.4 nM
19 | CNc1nc(CC(C)(C)C)cc2c1OC1(CCC1)C[C@@H]2N(C)C[C@@H](O)[C@H](Cc1ccc2c(c1)OCO2)NC(=O)[C@@H](C)OC [compound 145] | 777 nM | 298 nM

Row | SMILES | IC50 [1] | IC50 [2]
20 | CC(=O)N[C@@H](Cc1ccc(F)cc1)[C@H](O)CN[C@H]1CC2(CCC2)Oc2ncc(OC(C)(F)F)cc21 [compound 146] | 1250 nM | 421 nM
21 | CNc1nc(CC(C)(C)C)cc2c1OC1(CCC1)C[C@@H]2NC[C@@H](O)[C@H](Cc1ccc(F)cc1)NC(=O)COC [compound 147] | 23.2 nM | 49.5 nM
22 | CNc1nc(CC(C)(C)C)cc2c1OC1(CCC1)C[C@@H]2NC[C@@H](O)[C@H](Cc1cccc(F)c1)NC(=O)COC [compound 148] | 6.54 nM | 38.7 nM
23 | COCCNc1nc(CC(C)(C)C)cc2c1OC1(CCC1)C[C@@H]2NC[C@@H](O)[C@H](Cc1ccc(F)cc1)NC(C)=O [compound 149, N-((1S,2R)-3-(((4′S)-6′-(2,2-dimethylpropyl)-8′-((2-(methyloxy)ethyl)amino)-3′,4-dihydrospiro[cyclobutane-1,2′-pyrano[2,3-c]pyridin]-4′-yl)amino)-1-((4-fluorophenyl)methyl)-2-hydroxypropyl)acetamide] | 27.2 nM | 47.9 nM
24 | COCCNc1nc(CC(C)(C)C)cc2c1OC1(CCC1)C[C@@H]2NC[C@@H](O)[C@H](Cc1ccc(F)cc1)NC(=O)COC [compound 150] | 22.6 nM | 47.9 nM
25 | CC(=O)N[C@@H](Cc1cccc(F)c1)[C@H](O)CN[C@H]1CC2(CCC2)Oc2ncc(OC(C)(F)F)cc21 [compound 151, N-((1S,2R)-3-(((4′S)-6′-((1,1-difluoroethyl)oxy)-3′,4′-dihydrospiro[cyclobutane-1,2′-pyrano[2,3-b]pyridin]-4′-yl)amino)-1-((3-fluorophenyl)methyl)-2-hydroxypropyl)acetamide] | 84.1 nM | 20.5 nM
26 | CC(F)(F)Oc1cnc2c(c1)[C@@H](NC[C@@H](O)[C@H](Cc1cccc(F)c1)NC(=O)[C@@H]1CCC(=O)O1)CC1(CCC1)O2 [compound 152] | 33.6 nM | 10.6 nM
27 | COCC(=O)N[C@@H](Cc1ccc(F)cc1)[C@H](O)CN[C@H]1CC2(CCC2)Oc2c1cc(CC(C)(C)C)nc2C [compound 153] | 153 nM | 200 nM
28 | COC(C)C(=O)NC(Cc1ccc(F)cc1)C(O)CNC1CC2(CCC2)Oc2ncc(CC(C)(C)C)cc21 [compound 154, (2R)—N-((1S,2R)-3-(((4′S)-6′-(2,2-dimethylpropyl)-3′,4-dihydrospiro[cyclobutane-1,2′-pyrano[2,3-b]pyridin]-4′-yl)amino)-1-((4-fluorophenyl)methyl)-2-hydroxypropyl)-2-(methyloxy)propanamide] | 28 nM | 13.2 nM
29 | CO[C@@H](C)C(=O)N[C@@H](Cc1ccc(F)cc1)[C@H](O)CN[C@H]1CC2(CCC2)Oc2ncc(CC(C)(C)C)cc21 [compound 155] | 76 nM | 40.1 nM
30 | CC(O)C(=O)N[C@@H](Cc1ccc(F)cc1)[C@H](O)CN[C@H]1CC2(CCC2)Oc2ncc(CC(C)(C)C)cc21 (stereo partly shown) [compound 156] | 45.3 nM | 27.7 nM
31 | C[C@@H](O)C(=O)N[C@@H](Cc1ccc(F)cc1)[C@H](O)CN[C@H]1CC2(CCC2)Oc2ncc(CC(C)(C)C)cc21 [compound 157] | 21.7 nM | 15.1 nM
32 | CC(C)(C)Cc1cnc2c(c1)[C@@H](NC[C@@H](O)[C@H](Cc1ccc(F)cc1)NC(=O)C(F)C(F)(F)F)CC1(CCC1)O2 (stereo partly shown) [compound 158] | 241 nM | 50.4 nM
33 | CC(=O)N[C@@H](Cc1ccc(F)cc1)[C@H](O)CN[C@H]1CC2(CCC2)Oc2ncc(CC(C)(C)C(F)F)cc21 [compound 159] | 36.3 nM | 19.2 nM
34 | COCC(=O)N[C@@H](Cc1ccc(F)cc1)[C@H](O)CN[C@H]1CC2(CCC2)Oc2ncc(CC(C)(C)C(F)F)cc21 [compound 160] | 39.1 nM | 8.84 nM
35 | CC(=O)N[C@@H](Cc1ccc(F)cc1)[C@H](O)CN[C@H]1CC2(CCC2)Oc2ccc(CC(C)(C)C#N)cc21 [compound 161] | 17.4 nM | 11.2 nM
36 | COCC(=O)N[C@@H](Cc1ccc(F)cc1)[C@H](O)CN[C@H]1CC2(CCC2)Oc2ccc(CC(C)(C)C#N)cc21 [compound 162] | 31.1 nM | 44.6 nM
37 | COCC(=O)N[C@@H](Cc1ccnc(C(F)(F)F)c1)[C@H](O)CN[C@H]1CC2(CCC2)Oc2ncc(CC(C)(C)C)cc21 [compound 163] | 35.9 nM | 26.9 nM
38 | CC(=O)N[C@@H](Cc1ccc(F)cc1)[C@H](O)CN[C@H]1CC2(CCC2)Cc2ncc(CC(C)(C)C)cc21 [compound 164] | 20.5 nM | 62.3 nM
